These results are taken from patent US20230143612A1 (Arbutus Biopharma Corporation, priority 2020, published 2023).

Chain of PD-L1 His protein / PD-1 Fc protein (Q9NZQ7 19-238 limits assumed): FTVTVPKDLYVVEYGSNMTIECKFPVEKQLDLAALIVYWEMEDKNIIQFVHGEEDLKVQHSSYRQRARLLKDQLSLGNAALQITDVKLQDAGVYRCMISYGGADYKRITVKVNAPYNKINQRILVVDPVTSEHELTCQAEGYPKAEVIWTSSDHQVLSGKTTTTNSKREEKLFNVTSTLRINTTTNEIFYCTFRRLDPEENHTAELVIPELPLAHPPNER

In this assay the target is PD-L1 His protein / PD-1 Fc protein (Homo sapiens, UniProt Q9NZQ7). Put plainly: HTRF Assay (PD-1/PD-L1 interaction). It is filed as binding. The note with it: PD-L1 His 6 nM, PD-1 Fc 6 nM. The procedure, abridged:
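Compounds tested from 20 μM down to 0.001 μM (3-fold) against 6 nM PD-L1 His and 6 nM PD-1 Fc, 15 min room temperature incubation. Detection after 1 h at room temperature with Tb cryptate anti-6HIS and XL665 anti-human IgG reagents (mixture at 0.35 nM and 6.7 nM), HTRF signal.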
Background: TR-FRET usually uses a lanthanide donor and a delayed reading to cut background.
As for `COc1nc(-c2cccc(-c3cccc(-c4ccc5nc(C(=O)NC[C@H](C)N)cn5n4)c3Cl)c2Cl)ccc1CNC[C@@H]1CCC(=O)N1` [Example 439, N-[(2S)-2-Aminopropyl]-6-[2-chloro-3-[2-chloro-3-[6-methoxy-5-[[[(2S)-5-oxopyrrolidin-2-yl]methylamino]methyl]-2-pyridyl]phenyl]phenyl]imidazo[1,2-b]pyridazine-2-carboxamide], it took 20 nM to reach half-maximal inhibition (IC50). To `Cc1c(COc2cc(OCc3cncc(C#N)c3)c(CNCCO)cc2Cl)cccc1-c1cccc(-c2ccn3c(=O)c(CNCCO)cnc3c2)c1C#N` [Example 25, 5-((4-Chloro-5-((2′-cyano-3′-(3-(((2-hydroxyethyl)amino)methyl)-4-oxo-4H-pyrido[1,2-a]pyrimidin-8-yl)-2-methyl-[1,1′-biphenyl]-3-yl)methoxy)-2-(((2-hydroxyethyl)amino)methyl)phenoxy)methyl)nicotinonitrile] belongs 0.3 nM; to `COc1nc(-c2cccc(-c3cccc(-c4ccn5c(=O)c(CN(C)CCNC(=O)OC(C)(C)C)cnc5c4)c3Cl)c2Cl)ccc1CN(C)CCNC(=O)OC(C)(C)C` [Example 277, tert-butyl (2-(((6-(3′-(3-(((2-((tert-butoxycarbonyl)amino)ethyl)(methyl)amino)methyl)-4-oxo-4H-pyrido[1,2-a]pyrimidin-8-yl)-2,2′-dichloro-[1,1′-biphenyl]-3-yl)-2-methoxypyridin-3-yl)methyl)(methyl)amino)ethyl)carbamate], 200 nM.

With `Cc1c(COc2cc(OCc3cncc(C(N)=O)c3)c(CNCCO)cc2Cl)cccc1-c1cccc(-c2ccn3c(=O)c(CNCCO)cnc3c2)c1` [Example 1, 5-((4-Chloro-2-(((2-hydroxyethyl)amino)methyl)-5-((3′-(3-(((2-hydroxyethyl)amino)methyl)-4-oxo-4H-pyrido[1,2-a]pyrimidin-8-yl)-2-methyl-[1,1′-biphenyl]-3-yl)methoxy)phenoxy)methyl)nicotinamide], the IC50 – broadly, the concentration needed to halve the response being measured – worked out at 2.8 nM. To `Cn1cc(CNC[C@@H]2CCC(=O)N2)c2ccc(-c3cccc(-c4cccc(-c5ccn6c(=O)c(CNC[C@@H]7CCC(=O)N7)cnc6c5)c4Cl)c3Cl)cc21` [Example 453, 8-[2-Chloro-3-[2-chloro-3-[1-methyl-3-[[[(2S)-5-oxopyrrolidin-2-yl]methylamino]methyl]indol-6-yl]phenyl]phenyl]-3-[[[(2S)-5-oxopyrrolidin-2-yl]methylamino]methyl]pyrido[1,2-a]pyrimidin-4-one] belongs 1200 nM; to `COc1nc(-c2cccc(-c3cccc(-c4cc5c(=O)n(C)c(CNC(C)(C)C)nn5c4)c3Cl)c2Cl)ccc1CNC[C@@H]1CCC(=O)N1` [Example 479, 2-[(tert-Butylamino)methyl]-6-[2-chloro-3-[2-chloro-3-[6-methoxy-5-[[[(2S)-5-oxopyrrolidin-2-yl]methylamino]methyl]-2-pyridyl]phenyl]phenyl]-3-methyl-pyrrolo[2,1-f][1,2,4]triazin-4-one], 14 nM. `COc1nc(-c2cccc(-c3cccc(-c4ccn5c(=O)c(CN6CCNC(=O)CC6)cnc5c4)c3Cl)c2Cl)ccc1CNC[C@@H]1CCC(=O)N1` [Example 327, (S)-8-(2,2′-Dichloro-3′-(6-methoxy-5-((((5-oxopyrrolidin-2-yl)methyl)-amino)methyl)-pyridin-2-yl)-[1,1′-biphenyl]-3-yl)-3-((5-oxo-1,4-diazepan-1-yl)methyl)-4H-pyrido[1,2-a]pyrimidin-4-one] gave an IC50 of 0.1 nM.

Consider `COc1nc(-c2cccc(-c3cccc(-c4ccn5c(=O)c(C6=NCC(C(=O)O)N6)cnc5c4)c3Cl)c2Cl)ccc1CNC[C@@H]1CCC(=O)N1` (mixture of isomers) [Example 179, 2-(8-(2,2′-Dichloro-3′-(6-methoxy-5-(((((S)-5-oxopyrrolidin-2-yl)methyl)amino)methyl)pyridin-2-yl)-[1,1′-biphenyl]-3-yl)-4-oxo-4H-pyrido[1,2-a]pyrimidin-3-yl)-4,5-dihydro-1H-imidazole-5-carboxylic acid], for which the midpoint of inhibition, the IC50, lay at 0.1 nM. This lies in the sub-nanomolar range. With `COc1nc(-c2cccc(-c3cccc(-c4ccn5c(=O)c(CNC[C@H](C)O)cnc5c4)c3Cl)c2Cl)cc(F)c1CNC[C@@H]1CCC(=O)N1` [Example 272, 8-[2-Chloro-3-[2-chloro-3-[4-fluoro-6-methoxy-5-[[[(2S)-5-oxopyrrolidin-2-yl]methylamino]methyl]-2-pyridyl]phenyl]phenyl]-3-[[[(2S)-2-hydroxypropyl]amino]methyl]pyrido[1,2-a]pyrimidin-4-one], half-maximal inhibition (IC50) required 0.2 nM. To `COc1nc(-c2cccc(-c3cccc(-c4cc5c(cn4)C(=O)N(CCNC[C@@H]4CCC(=O)N4)C5)c3Cl)c2Cl)ccc1CNC[C@@H]1CCC(=O)N1` [Example 467, 6-(2,2′-Dichloro-3′-(6-methoxy-5-(((((S)-5-oxopyrrolidin-2-yl)methyl)amino)methyl)pyridin-2-yl)-[1,1′-biphenyl]-3-yl)-2-(2-((((S)-5-oxopyrrolidin-2-yl)methyl)amino)ethyl)-1H-pyrrolo[3,4-c]pyridin-3(2H)-one] belongs 0.1 nM. Next, `COc1nc(-c2cccc(-c3cccc(-c4ccn5c(=O)c(CNC[C@@H]6CCC(=O)N6)cnc5c4)c3Cl)c2Cl)ccc1C1(CN)CC1` [Example 283, (S)-8-(3′-(5-(1-(Aminomethyl)cyclopropyl)-6-methoxypyridin-2-yl)-2,2′-dichloro-[1,1′-biphenyl]-3-yl)-3-((((5-oxopyrrolidin-2-yl)methyl)amino)methyl)-4H-pyrido[1,2-a]pyrimidin-4-one]: 150 nM; `COc1nc(-c2cccc(-c3cccc(-c4cc5c(=O)n(C)c(CNC[C@H](C)OC)nn5c4)c3Cl)c2Cl)ccc1CNC[C@@H]1CCC(=O)N1` [Example 475, 6-[2-Chloro-3-[2-chloro-3-[6-methoxy-5-[[[(2S)-5-oxopyrrolidin-2-yl]methylamino]methyl]-2-pyridyl]phenyl]phenyl]-2-[[[(2S)-2-methoxypropyl]amino]methyl]-3-methyl-pyrrolo[2,1-f][1,2,4]triazin-4-one]: 530 nM. In turn, `COc1nc(-c2cccc(-c3cccc(N4Cc5cc(CNC[C@@H]6CCC(=O)N6)ccc5C4=O)c3Cl)c2Cl)ccc1CNC[C@@H]1CCC(=O)N1` [Example 387, 2-(2,2′-Dichloro-3′-(6-methoxy-5-(((((S)-5-oxopyrrolidin-2-yl)methyl)amino)methyl)pyridin-2-yl)-[1,1′-biphenyl]-3-yl)-5-(((((S)-5-oxopyrrolidin-2-yl)methyl)amino)methyl)isoindolin-1-one] had an IC50 of 0.1 nM. Next, `COc1nc(-c2cccc(-c3cccc(-c4ccc5c(OC)c(CNC[C@@H]6CCC(=O)N6)cc(Cl)c5n4)c3Cl)c2Cl)ccc1CNC[C@@H]1CCC(=O)N1` [Example 194, (S)-5-((((8-Chloro-2-(2,2′-dichloro-3′-(6-methoxy-5-(((((S)-5-oxopyrrolidin-2-yl)methyl)amino)methyl)pyridin-2-yl)-[1,1′-biphenyl]-3-yl)-5-methoxyquinolin-6-yl)methyl)amino)methyl)pyrrolidin-2-one]: 26 nM. To `COc1nc(-c2cccc(-c3cccc(-c4ccc5c(n4)OCCNC5)c3Cl)c2Cl)ccc1CNC[C@@H]1CCC(=O)N1` [Example 218, (S)-5-((((6-(2,2′-Dichloro-3′-(2,3,4,5-tetrahydropyrido[3,2-f][1,4]oxazepin-8-yl)-[1,1′-biphenyl]-3-yl)-2-methoxypyridin-3-yl)methyl)amino)methyl)887yrrolidine-2-one] belongs 0.6 nM.

Compound `COc1nc(-c2cccc(-c3cccc(-c4ccn5c(=O)c6c(nc5c4)OCCNC6)c3Cl)c2Cl)ccc1CNC[C@@H]1CCC(=O)N1` [Example 396, (S)-10-(2,2′-Dichloro-3′-(6-methoxy-5-((((5-oxopyrrolidin-2-yl)methyl)amino)methyl)pyridin-2-yl)-[1,1′-biphenyl]-3-yl)-4,5-dihydro-2H-pyrido[1′,2′:1,2]pyrimido[5,4-f][1,4]oxazepin-6(3H)-one] gave an IC50 of 15 nM. For the compound `COc1nc(-c2cccc(-c3cccc(-c4ccn5c(=O)c(CNC[C@@H]6CCC(=O)N6)cnc5c4)c3C)c2Cl)cnc1CNC[C@@H]1CCC(=O)N1` [Example 36, 8-(2′-Chloro-3′-(6-methoxy-5-(((((S)-5-oxopyrrolidin-2-yl)methyl)amino)methyl)pyrazin-2-yl)-2-methyl-[1,1′-biphenyl]-3-yl)-3-(((((S)-5-oxopyrrolidin-2-yl)methyl)amino)methyl)-4H-pyrido[1,2-a]pyrimidin-4-one], the IC50 was determined as 1.5 nM. Against the preceding compound, the IC50 is about 10-fold lower. Next, `COc1nc(-c2cccc(-c3cccc(-c4ccn5c(=O)c(CNC[C@@H](C)O)cnc5c4)c3Cl)c2Cl)ccc1CNC[C@@H](C)O` [Example 186, 8-(2,2′-Dichloro-3′-(5-((((R)-2-hydroxypropyl)amino)methyl)-6-methoxypyridin-2-yl)-[1,1′-biphenyl]-3-yl)-3-((((R)-2-hydroxypropyl)amino)methyl)-4H-pyrido[1,2-a]pyrimidin-4-one]: 6.4 nM; `COc1nc(-c2cccc(-c3cccc(-c4ccn5c(=O)c(CNC[C@H](C)O)c(C)nc5c4)c3Cl)c2Cl)ccc1CNC[C@H](C)O` [Example 181, 8-(2,2′-Dichloro-3′-(5-((((S)-2-hydroxypropyl)amino)methyl)-6-methoxypyridin-2-yl)-[1,1′-biphenyl]-3-yl)-3-((((S)-2-hydroxypropyl)amino)methyl)-2-methyl-4H-pyrido[1,2-a]pyrimidin-4-one]: 3.8 nM. To `COc1nc(-c2cccc(-c3cccc(-c4ccn5c(=O)c(CNC[C@@H]6CCC(=O)N6)cnc5c4)c3Cl)c2Cl)ccc1CNC[C@@H]1CCC(=O)N1` [Example 33, 8-(2,2′-Dichloro-3′-(6-methoxy-5-(((((S)-5-oxopyrrolidin-2-yl)methyl)amino)methyl)pyridin-2-yl)-[1,1′-biphenyl]-3-yl)-3-(((((S)-5-oxopyrrolidin-2-yl)methyl)amino)methyl)-4H-pyrido[1,2-a]pyrimidin-4-one] belongs 2.7 nM.
